From PMC12655527, “An Investigational Study on the Role of ADME Agents’ Genetic Variation on DD217 Pharmacokinetics and Safety Profile” (Pharmaceuticals, 2025)
“And” between values parts separate entries of the source, which are not always exact repeats. Equal values may be shown once. Read-outs that look alike come from different tables or passages of the source.

Assay: Pharmacokinetic parameters (Tmax, AUClast, Cmax) of DD217 in phase II trial patients
Assay type: in vivo, human (patients undergoing knee replacement surgery)
Parameters: AUClast (area under the concentration-time curve up to the last measurable point) / Cmax (maximum plasma concentration): unit not given here
Settings: for AUC(0-t) / Cmax / Tmax: human, plasma, oral; for AUClast (area under the concentration-time curve up to the last measurable point) / Cmax (maximum plasma concentration) / Tmax (time to maximum plasma concentration): individual patients
Source text: The design, eligibility criteria, and outcomes of the phase II clinical trial evaluating the safety and tolerability of DD217 (NCT05189002, ClinicalTrials.gov) have been described previously. Briefly, this was a multicenter, double-blind, randomized, prospective phase II study designed to determine the optimal dosing regimen and to assess the safety and efficacy of DD217 for the prevention of venous thromboembolism (VTE) in patients undergoing knee replacement surgery. Patients were randomized into one of three groups: two groups received oral DD217 at doses of 40 mg or 60 mg once daily, starting on the morning of the first postoperative day, and one group received the active comparator, dalteparin sodium. The treatment duration was 14 days.
In total, data from 52 patients who underwent knee replacement surgery were included in the analysis. Of these, 34 patients received DD217 at daily doses of 40 mg (n = 16) or 60 mg (n = 18), and 18 patients received dalteparin sodium.
To characterize the pharmacokinetic profile of DD217 in our study, three parameters were assessed: Cmax, Tmax, and AUClast.

CC(=N)N(C)c1ccc(C(=O)Nc2ccc(C)cc2C(=O)Nc2ccc(Cl)cn2)cc1.Cl [DD217, N-(5-chloropyridin-2-yl)-5-methyl-2-[4-(N-methylacetimidamido)benzamido]benzamide hydrochloride]
AUC(0-t) (40 mg, CYP2C19 *1/*17, *17/*17, RM + UM (n = 9), mean ± SD, read-out: AUClast): 47.7 ± 42.6 ng·h/mL
Cmax (40 mg, CYP2C19 *1/*17, *17/*17, RM + UM (n = 9), mean ± SD, read-out: Cmax): 5.8 ± 6.73 ng/mL
Tmax (40 mg, CYP2C19 *1/*17, *17/*17, RM + UM (n = 9), mean ± SD, read-out: Tmax): 7.67 ± 6.71 h
AUC(0-t) (40 mg, CYP3A *1/*1, EM (n = 12), mean ± SD, read-out: AUClast): 40 ± 42.1 ng·h/mL
Cmax (40 mg, CYP3A *1/*1, EM (n = 12), mean ± SD, read-out: Cmax): 5.02 ± 6.92 ng/mL
Tmax (40 mg, CYP3A *1/*1, EM (n = 12), mean ± SD, read-out: Tmax): 11.8 ± 9.5 h
AUC(0-t) (60 mg/day, ABCB1 rs1045642 C/C (n 3), read-out: AUClast (SD)): 197 ng·h/mL
Cmax (60 mg/day, ABCB1 rs1045642 C/C (n 3), read-out: Cmax (SD)): 15.9 ng/mL
Tmax (60 mg/day, ABCB1 rs1045642 C/C (n 3), read-out: Tmax (SD)): 2 h
AUC(0-t) (60 mg/day, ABCB1 rs1045642 T/C (n 8), read-out: AUClast (SD)): 53.9 ng·h/mL
Cmax (60 mg/day, ABCB1 rs1045642 T/C (n 8), read-out: Cmax (SD)): 5.54 ng/mL
Tmax (60 mg/day, ABCB1 rs1045642 T/C (n 8), read-out: Tmax (SD)): 7.75 h
AUC(0-t) (60 mg/day, ABCB1 rs1045642 T/T (n 7), read-out: AUClast (SD)): 27.6 ng·h/mL
Cmax (60 mg/day, ABCB1 rs1045642 T/T (n 7), read-out: Cmax (SD)): 2.42 ng/mL
Tmax (60 mg/day, ABCB1 rs1045642 T/T (n 7), read-out: Tmax (SD)): 13.6 h
AUC(0-t) (60 mg/day, ABCB1 rs1128503 C/C (n 4), read-out: AUClast (SD)): 164 ng·h/mL
Cmax (60 mg/day, ABCB1 rs1128503 C/C (n 4), read-out: Cmax (SD)): 14.1 ng/mL
Tmax (60 mg/day, ABCB1 rs1128503 C/C (n 4), read-out: Tmax (SD)): 2 h
AUC(0-t) (60 mg/day, ABCB1 rs1128503 T/C (n 10), read-out: AUClast (SD)): 50.5 ng·h/mL
Cmax (60 mg/day, ABCB1 rs1128503 T/C (n 10), read-out: Cmax (SD)): 4.66 ng/mL
Tmax (60 mg/day, ABCB1 rs1128503 T/C (n 10), read-out: Tmax (SD)): 9 h
AUC(0-t) (60 mg/day, ABCB1 rs1128503 T/T (n 4), read-out: AUClast (SD)): 14 ng·h/mL
Cmax (60 mg/day, ABCB1 rs1128503 T/T (n 4), read-out: Cmax (SD)): 1.49 ng/mL
Tmax (60 mg/day, ABCB1 rs1128503 T/T (n 4), read-out: Tmax (SD)): 16.2 h
AUC(0-t) (60 mg/day, ABCB1 rs2032582 G/G (n 4), read-out: AUClast (SD)): 164 ng·h/mL
Cmax (60 mg/day, ABCB1 rs2032582 G/G (n 4), read-out: Cmax (SD)): 14.1 ng/mL
Tmax (60 mg/day, ABCB1 rs2032582 G/G (n 4), read-out: Tmax (SD)): 2 h
AUC(0-t) (60 mg/day, ABCB1 rs2032582 T/G (n 9), read-out: AUClast (SD)): 51.6 ng·h/mL
Cmax (60 mg/day, ABCB1 rs2032582 T/G (n 9), read-out: Cmax (SD)): 4.87 ng/mL
Tmax (60 mg/day, ABCB1 rs2032582 T/G (n 9), read-out: Tmax (SD)): 9.56 h
AUC(0-t) (60 mg/day, ABCB1 rs2032582 T/T (n 5), read-out: AUClast (SD)): 19.4 ng·h/mL
Cmax (60 mg/day, ABCB1 rs2032582 T/T (n 5), read-out: Cmax (SD)): 1.74 ng/mL
Tmax (60 mg/day, ABCB1 rs2032582 T/T (n 5), read-out: Tmax (SD)): 13.8 h
AUC(0-t) (60 mg/day, ABCB1 rs4148738 C/C (n 5), read-out: AUClast (SD)): 18.9 ng·h/mL
Cmax (60 mg/day, ABCB1 rs4148738 C/C (n 5), read-out: Cmax (SD)): 1.78 ng/mL
Tmax (60 mg/day, ABCB1 rs4148738 C/C (n 5), read-out: Tmax (SD)): 10.6 h
AUC(0-t) (60 mg/day, ABCB1 rs4148738 C/T (n 9), read-out: AUClast (SD)): 51.9 ng·h/mL
Cmax (60 mg/day, ABCB1 rs4148738 C/T (n 9), read-out: Cmax (SD)): 4.85 ng/mL
Tmax (60 mg/day, ABCB1 rs4148738 C/T (n 9), read-out: Tmax (SD)): 11.3 h
AUC(0-t) (60 mg/day, ABCB1 rs4148738 T/T (n 4), read-out: AUClast (SD)): 164 ng·h/mL
Cmax (60 mg/day, ABCB1 rs4148738 T/T (n 4), read-out: Cmax (SD)): 14.1 ng/mL
Tmax (60 mg/day, ABCB1 rs4148738 T/T (n 4), read-out: Tmax (SD)): 2 h
AUC(0-t) (60 mg, CYP2C8 rs10509681 T/C (n 2), read-out: AUClast (SD)): 62.5 ng·h/mL
Cmax (60 mg, CYP2C8 rs10509681 T/C (n 2), read-out: Cmax (SD)): 5.69 ng/mL
Tmax (60 mg, CYP2C8 rs10509681 T/C (n 2), read-out: Tmax (h, SD)): 3 h
AUC(0-t) (60 mg, CYP2C8 rs10509681 T/T (n 16), read-out: AUClast (SD)): 68.2 ng·h/mL
Cmax (60 mg, CYP2C8 rs10509681 T/T (n 16), read-out: Cmax (SD)): 6.11 ng/mL
Tmax (60 mg, CYP2C8 rs10509681 T/T (n 16), read-out: Tmax (h, SD)): 9.81 h
AUC(0-t) (60 mg, CYP2C8 rs11572080 C/C (n 16), read-out: AUClast (SD)): 68.2 ng·h/mL
Cmax (60 mg, CYP2C8 rs11572080 C/C (n 16), read-out: Cmax (SD)): 6.11 ng/mL
Tmax (60 mg, CYP2C8 rs11572080 C/C (n 16), read-out: Tmax (h, SD)): 9.81 h
AUC(0-t) (60 mg, CYP2C8 rs11572080 C/T (n 2), read-out: AUClast (SD)): 62.5 ng·h/mL
Cmax (60 mg, CYP2C8 rs11572080 C/T (n 2), read-out: Cmax (SD)): 5.69 ng/mL
Tmax (60 mg, CYP2C8 rs11572080 C/T (n 2), read-out: Tmax (h, SD)): 3 h
AUC(0-t) (60 mg, CYP2C9 *1/*1, NM (n = 11), mean ± SD, read-out: AUClast): 37.5 ± 42.4 ng·h/mL
Cmax (60 mg, CYP2C9 *1/*1, NM (n = 11), mean ± SD, read-out: Cmax): 3.66 ± 4.07 ng/mL
Tmax (60 mg, CYP2C9 *1/*1, NM (n = 11), mean ± SD, read-out: Tmax): 12.9 ± 9.14 h
AUC(0-t) (60 mg, CYP2C9 *2/*3, PM (n = 2), mean ± SD, read-out: AUClast): 177 ± 224 ng·h/mL
Cmax (60 mg, CYP2C9 *2/*3, PM (n = 2), mean ± SD, read-out: Cmax): 11.3 ± 13.6 ng/mL
Tmax (60 mg, CYP2C9 *2/*3, PM (n = 2), mean ± SD, read-out: Tmax): 2.5 ± 2.12 h
AUC(0-t) (60 mg, CYP2C19 *1/*1, NM (n = 8), mean ± SD, read-out: AUClast): 98 ± 124 ng·h/mL
Cmax (60 mg, CYP2C19 *1/*1, NM (n = 8), mean ± SD, read-out: Cmax): 8.44 ± 9.71 ng/mL
Tmax (60 mg, CYP2C19 *1/*1, NM (n = 8), mean ± SD, read-out: Tmax): 8.75 ± 10.1 h
AUC(0-t) (60 mg, CYP2C19 *1/*17, RM (n = 6), mean ± SD, read-out: AUClast): 50.5 ± 51.6 ng·h/mL
Cmax (60 mg, CYP2C19 *1/*17, RM (n = 6), mean ± SD, read-out: Cmax): 4.5 ± 4.61 ng/mL
Tmax (60 mg, CYP2C19 *1/*17, RM (n = 6), mean ± SD, read-out: Tmax): 9.17 ± 7.33 h
AUC(0-t) (60 mg, CYP3A *1/*1, EM (n = 16), mean ± SD, read-out: AUClast): 52.7 ± 63.3 ng·h/mL
Cmax (60 mg, CYP3A *1/*1, EM (n = 16), mean ± SD, read-out: Cmax): 5.32 ± 6.58 ng/mL
Tmax (60 mg, CYP3A *1/*1, EM (n = 16), mean ± SD, read-out: Tmax): 9.75 ± 8.93 h
AUClast (area under the concentration-time curve up to the last measurable point) (40 mg/day oral): 39.7 and 128.526 and 20.601 and 13.049 and 18.213 and 10.234 and 34.56 and 101.166 and 120.462 and 21.211 and 2.735 and 84.631 and 10.412 and 4.928 and 48.451 and 17.602
Cmax (maximum plasma concentration) (40 mg/day oral): 3.95 and 22.764 and 1.686 and 1.136 and 1.739 and 0.656 and 5.76 and 15.011 and 19.462 and 3.535 and 0.456 and 5.034 and 0.72 and 0.405 and 3.119 and 1.379
Tmax (time to maximum plasma concentration) (40 mg/day oral): 1 h and 12 h
AUClast (area under the concentration-time curve up to the last measurable point) (60 mg/day oral): 19.08 and 237.522 and 35.852 and 16.597 and 21.462 and 105.854 and 58.513 and 4.589 and 25.375 and 51.929 and 37.407 and 14.483 and 13.976 and 62.698 and 11.57 and 152.359 and 11.552 and 335.306
Cmax (maximum plasma concentration) (60 mg/day oral): 1.663 and 25.28 and 3.324 and 1.155 and 1.59 and 9.707 and 7.329 and 0.325 and 2.291 and 4.963 and 2.974 and 1.614 and 1.37 and 8.694 and 1.712 and 13.569 and 0.613 and 20.897
Tmax (time to maximum plasma concentration) (60 mg/day oral): 1 h and 12 h and 5 h
